{"source": "paper PMC6886798", "about": "“Expression of myeloid Src-family kinases is associated with poor prognosis in AML and influences Flt3-ITD kinase inhibitor acquired resistance” (PLoS ONE, 2019)", "key": {"Hck T338M": {"target": "T1, Hck T338M (Homo sapiens, UniProt P08631, T333M)", "T1 construct": "Recombinant near-full-length kinases, consisting of the SH2, SH3 and kinase domains plus the negative regulatory tail; made in house; host or cells: E. coli BL21Star (DE3), co-expressed with Csk and PTP1B", "T1 sequence (P08631 78-526 T333M limits assumed)": "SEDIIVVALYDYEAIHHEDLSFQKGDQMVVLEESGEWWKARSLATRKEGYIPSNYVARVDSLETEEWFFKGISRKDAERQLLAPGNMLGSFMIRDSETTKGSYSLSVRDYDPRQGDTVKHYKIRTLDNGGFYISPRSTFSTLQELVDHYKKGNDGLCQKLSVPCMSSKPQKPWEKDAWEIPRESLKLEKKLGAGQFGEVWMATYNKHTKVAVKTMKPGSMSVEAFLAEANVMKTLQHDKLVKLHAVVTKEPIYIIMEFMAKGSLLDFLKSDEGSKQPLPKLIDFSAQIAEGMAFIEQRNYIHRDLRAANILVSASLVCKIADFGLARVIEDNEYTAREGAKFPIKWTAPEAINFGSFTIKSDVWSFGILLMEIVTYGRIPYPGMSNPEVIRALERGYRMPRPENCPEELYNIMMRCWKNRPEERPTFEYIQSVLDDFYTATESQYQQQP", "assay": "Z'-LYTE in vitro kinase assay", "type": "biochemical"}, "Fgr T338F": {"target": "T2, Fgr T338F (Homo sapiens, UniProt P09769, T334F)", "T2 construct": "Recombinant near-full-length kinases, consisting of the SH2, SH3 and kinase domains plus the negative regulatory tail; made in house; host or cells: E. coli BL21Star (DE3), co-expressed with Csk and PTP1B", "assay": "Z'-LYTE in vitro kinase assay", "type": "biochemical", "quoted_text": "Assays were performed in quadruplicate in 384-well low volume, non-binding, black polystyrene microplates (Corning) according to the manufacturer’s instructions. Briefly, this assay measures phosphorylation of the Tyr2 peptide substrate which is tagged with coumarin and fluorescein on its N- and C-termini, respectively, to form a FRET pair. After the kinase reaction, a development step involves site-specific proteolytic cleavage of the unphosphorylated but not the phosphorylated peptide. […] Kinase reactions were run in 50 mM HEPES, pH 7.5, 10 mM MgCl2, 1 mM EGTA, and 0.01% BRIJ-35 (buffer supplied by the manufacturer). […] Following incubation for 1 h at ambient temperature, reactions were quenched by addition of the development protease, and coumarin and fluorescein fluorescence were measured 1 h later on a Molecular Devices SpectraMax M5 plate reader. […] For experiments with inhibitors, compounds were preincubated with kinase for 30 min prior to initiation of the reaction by the addition of ATP."}, "ACVR2A": {"target": "T3, ACVR2A (Homo sapiens, UniProt P27037)", "T3 construct": "purchased Eurofins/DiscoverX KINOMEscan scanMAX", "T3 sequence (P27037 20-513)": "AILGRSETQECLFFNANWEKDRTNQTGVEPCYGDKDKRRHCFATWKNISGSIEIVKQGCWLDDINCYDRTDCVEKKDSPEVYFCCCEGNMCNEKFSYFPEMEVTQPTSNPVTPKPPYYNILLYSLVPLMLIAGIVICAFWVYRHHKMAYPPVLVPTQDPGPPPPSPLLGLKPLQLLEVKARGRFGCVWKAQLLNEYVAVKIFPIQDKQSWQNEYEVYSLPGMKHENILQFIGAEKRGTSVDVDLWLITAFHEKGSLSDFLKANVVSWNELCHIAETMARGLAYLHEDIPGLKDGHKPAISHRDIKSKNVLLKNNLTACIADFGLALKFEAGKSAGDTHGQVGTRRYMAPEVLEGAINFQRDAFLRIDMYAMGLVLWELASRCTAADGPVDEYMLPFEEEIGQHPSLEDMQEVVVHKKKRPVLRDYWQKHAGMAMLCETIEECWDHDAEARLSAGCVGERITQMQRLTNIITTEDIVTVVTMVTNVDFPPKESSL", "assay": "KINOMEscan", "type": "binding", "details": "1.0 µM", "description": "(§1) Kinase retention to the immobilized ligand is then measured using quantitative real-time PCR for each kinase-specific DNA barcode."}, "AKT3": {"target": "T4, AKT3 (Homo sapiens, UniProt Q9Y243)", "T4 construct": "purchased Eurofins/DiscoverX KINOMEscan scanMAX", "assay": "KINOMEscan", "type": "binding", "details": "1.0 µM", "description": "as §1"}, "BRSK1": {"target": "T5, BRSK1 (Homo sapiens, UniProt Q8TDC3)", "T5 construct": "purchased Eurofins/DiscoverX KINOMEscan scanMAX", "assay": "KINOMEscan", "type": "binding", "details": "1.0 µM", "description": "as §1"}, "CAMK1G": {"target": "T6, CAMK1G (Homo sapiens, UniProt Q96NX5)", "T6 construct": "purchased Eurofins/DiscoverX KINOMEscan scanMAX", "T6 sequence (Q96NX5 whole entry)": "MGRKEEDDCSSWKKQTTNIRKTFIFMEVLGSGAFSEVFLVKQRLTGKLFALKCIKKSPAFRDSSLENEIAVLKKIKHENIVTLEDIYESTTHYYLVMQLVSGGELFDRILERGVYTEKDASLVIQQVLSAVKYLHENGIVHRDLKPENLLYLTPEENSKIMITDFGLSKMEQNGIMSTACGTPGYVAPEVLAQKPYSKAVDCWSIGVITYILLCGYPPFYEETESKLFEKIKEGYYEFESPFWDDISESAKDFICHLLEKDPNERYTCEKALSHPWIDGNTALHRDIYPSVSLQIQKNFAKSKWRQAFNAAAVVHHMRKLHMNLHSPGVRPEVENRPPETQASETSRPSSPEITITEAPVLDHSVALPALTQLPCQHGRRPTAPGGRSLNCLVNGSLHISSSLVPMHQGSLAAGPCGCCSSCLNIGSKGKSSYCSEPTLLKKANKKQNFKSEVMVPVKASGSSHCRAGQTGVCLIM", "assay": "KINOMEscan", "type": "binding", "details": "1.0 µM", "description": "as §1"}, "CLK1": {"target": "T7, CLK1 (Homo sapiens, UniProt P49759)", "T7 construct": "purchased Eurofins/DiscoverX KINOMEscan scanMAX", "assay": "KINOMEscan", "type": "binding", "details": "1.0 µM", "description": "as §1"}, "EPHA1": {"target": "T8, EPHA1 (Homo sapiens, UniProt P21709)", "T8 construct": "purchased Eurofins/DiscoverX KINOMEscan scanMAX", "assay": "KINOMEscan", "type": "binding", "details": "1.0 µM", "description": "as §1"}, "FLT3-autoinhibited": {"target": "T9, FLT3-autoinhibited (Homo sapiens, UniProt P36888)", "T9 construct": "purchased Eurofins/DiscoverX KINOMEscan scanMAX", "assay": "KINOMEscan", "type": "binding", "details": "1.0 µM", "description": "as §1"}, "FYN": {"target": "T10, FYN (Homo sapiens, UniProt P06241)", "T10 construct": "purchased Eurofins/DiscoverX KINOMEscan scanMAX", "T10 sequence (P06241 whole entry)": "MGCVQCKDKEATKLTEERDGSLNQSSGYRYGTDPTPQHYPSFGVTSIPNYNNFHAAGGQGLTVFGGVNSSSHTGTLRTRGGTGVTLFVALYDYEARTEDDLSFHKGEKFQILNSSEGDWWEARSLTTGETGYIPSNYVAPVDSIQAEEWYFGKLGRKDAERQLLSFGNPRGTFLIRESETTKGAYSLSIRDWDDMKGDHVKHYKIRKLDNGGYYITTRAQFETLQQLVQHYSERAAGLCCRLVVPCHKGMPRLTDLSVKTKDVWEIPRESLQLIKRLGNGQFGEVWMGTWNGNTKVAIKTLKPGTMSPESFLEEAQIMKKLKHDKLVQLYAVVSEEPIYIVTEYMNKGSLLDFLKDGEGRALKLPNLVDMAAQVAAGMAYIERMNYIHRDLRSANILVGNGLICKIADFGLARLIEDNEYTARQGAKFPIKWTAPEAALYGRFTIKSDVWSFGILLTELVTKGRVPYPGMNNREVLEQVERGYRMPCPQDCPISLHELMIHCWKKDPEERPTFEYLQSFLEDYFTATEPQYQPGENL", "assay": "KINOMEscan", "type": "binding", "details": "1.0 µM", "description": "as §1"}, "GRK4": {"target": "T11, GRK4 (Homo sapiens, UniProt P32298)", "T11 construct": "purchased Eurofins/DiscoverX KINOMEscan scanMAX", "T11 sequence (P32298 whole entry)": "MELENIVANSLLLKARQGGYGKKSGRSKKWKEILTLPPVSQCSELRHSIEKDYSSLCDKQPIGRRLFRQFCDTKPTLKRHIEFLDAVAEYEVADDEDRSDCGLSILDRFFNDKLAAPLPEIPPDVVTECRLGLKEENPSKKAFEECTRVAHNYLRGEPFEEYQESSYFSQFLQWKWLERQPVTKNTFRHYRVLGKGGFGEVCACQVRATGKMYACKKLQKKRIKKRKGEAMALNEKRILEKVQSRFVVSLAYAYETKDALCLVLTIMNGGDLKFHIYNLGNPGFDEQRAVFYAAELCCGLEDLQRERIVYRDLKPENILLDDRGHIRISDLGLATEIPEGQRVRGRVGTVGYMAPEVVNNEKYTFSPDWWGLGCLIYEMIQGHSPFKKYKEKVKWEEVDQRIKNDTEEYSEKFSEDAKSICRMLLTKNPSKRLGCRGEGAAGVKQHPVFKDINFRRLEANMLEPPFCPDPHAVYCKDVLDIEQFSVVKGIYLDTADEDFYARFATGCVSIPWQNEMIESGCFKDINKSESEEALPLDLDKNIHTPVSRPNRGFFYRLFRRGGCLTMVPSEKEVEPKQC", "assay": "KINOMEscan", "type": "binding", "details": "1.0 µM", "description": "as §1"}, "HIPK3": {"target": "T12, HIPK3 (Homo sapiens, UniProt Q9H422)", "T12 construct": "purchased Eurofins/DiscoverX KINOMEscan scanMAX", "assay": "KINOMEscan", "type": "binding", "details": "1.0 µM", "description": "as §1"}, "MLK3": {"target": "T13, MLK3 (Homo sapiens, UniProt Q16584)", "T13 construct": "purchased Eurofins/DiscoverX KINOMEscan scanMAX", "assay": "KINOMEscan", "type": "binding", "details": "1.0 µM", "description": "as §1"}, "MRCKB": {"target": "T14, MRCKB (Homo sapiens, UniProt Q9Y5S2)", "T14 construct": "purchased Eurofins/DiscoverX KINOMEscan scanMAX", "assay": "KINOMEscan", "type": "binding", "details": "1.0 µM", "description": "as §1"}, "NEK1": {"target": "T15, NEK1 (Homo sapiens, UniProt Q96PY6)", "T15 construct": "purchased Eurofins/DiscoverX KINOMEscan scanMAX", "assay": "KINOMEscan", "type": "binding", "details": "1.0 µM", "description": "as §1"}, "PAK1": {"target": "T16, PAK1 (Homo sapiens, UniProt Q13153)", "T16 construct": "purchased Eurofins/DiscoverX KINOMEscan scanMAX", "assay": "KINOMEscan", "type": "binding", "details": "1.0 µM", "description": "as §1"}, "PFCDPK1(P.falciparum)": {"target": "T17, PFCDPK1(P.falciparum) (Plasmodium falciparum, UniProt P62344)", "T17 construct": "purchased Eurofins/DiscoverX KINOMEscan scanMAX", "T17 sequence (P62344 whole entry)": "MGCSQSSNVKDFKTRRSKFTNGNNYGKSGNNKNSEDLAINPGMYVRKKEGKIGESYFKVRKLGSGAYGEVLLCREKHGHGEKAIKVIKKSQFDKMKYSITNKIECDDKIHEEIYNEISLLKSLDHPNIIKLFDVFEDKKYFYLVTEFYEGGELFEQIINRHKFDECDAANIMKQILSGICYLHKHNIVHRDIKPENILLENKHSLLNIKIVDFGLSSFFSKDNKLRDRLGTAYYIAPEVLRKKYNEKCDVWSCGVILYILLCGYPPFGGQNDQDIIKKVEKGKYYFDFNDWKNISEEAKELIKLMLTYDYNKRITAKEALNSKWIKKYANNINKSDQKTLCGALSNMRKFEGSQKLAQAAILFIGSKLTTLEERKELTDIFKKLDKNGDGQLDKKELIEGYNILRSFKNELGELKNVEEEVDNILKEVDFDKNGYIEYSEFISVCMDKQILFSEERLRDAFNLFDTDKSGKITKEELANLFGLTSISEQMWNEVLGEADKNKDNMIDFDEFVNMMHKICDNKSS", "assay": "KINOMEscan", "type": "binding", "details": "1.0 µM", "description": "as §1"}, "PHKG1": {"target": "T18, PHKG1 (Homo sapiens, UniProt Q16816)", "T18 construct": "purchased Eurofins/DiscoverX KINOMEscan scanMAX", "assay": "KINOMEscan", "type": "binding", "details": "1.0 µM", "description": "as §1"}, "PIK3C2B": {"target": "T19, PIK3C2B (Homo sapiens, UniProt O00750)", "T19 construct": "purchased Eurofins/DiscoverX KINOMEscan scanMAX", "assay": "KINOMEscan", "type": "binding", "details": "1.0 µM", "description": "as §1"}, "PLK1": {"target": "T20, PLK1 (Homo sapiens, UniProt P53350)", "T20 construct": "purchased Eurofins/DiscoverX KINOMEscan scanMAX", "assay": "KINOMEscan", "type": "binding", "details": "1.0 µM", "description": "as §1"}, "PLK3": {"target": "T21, PLK3 (Homo sapiens, UniProt Q9H4B4)", "T21 construct": "purchased Eurofins/DiscoverX KINOMEscan scanMAX", "T21 sequence (Q9H4B4 whole entry)": "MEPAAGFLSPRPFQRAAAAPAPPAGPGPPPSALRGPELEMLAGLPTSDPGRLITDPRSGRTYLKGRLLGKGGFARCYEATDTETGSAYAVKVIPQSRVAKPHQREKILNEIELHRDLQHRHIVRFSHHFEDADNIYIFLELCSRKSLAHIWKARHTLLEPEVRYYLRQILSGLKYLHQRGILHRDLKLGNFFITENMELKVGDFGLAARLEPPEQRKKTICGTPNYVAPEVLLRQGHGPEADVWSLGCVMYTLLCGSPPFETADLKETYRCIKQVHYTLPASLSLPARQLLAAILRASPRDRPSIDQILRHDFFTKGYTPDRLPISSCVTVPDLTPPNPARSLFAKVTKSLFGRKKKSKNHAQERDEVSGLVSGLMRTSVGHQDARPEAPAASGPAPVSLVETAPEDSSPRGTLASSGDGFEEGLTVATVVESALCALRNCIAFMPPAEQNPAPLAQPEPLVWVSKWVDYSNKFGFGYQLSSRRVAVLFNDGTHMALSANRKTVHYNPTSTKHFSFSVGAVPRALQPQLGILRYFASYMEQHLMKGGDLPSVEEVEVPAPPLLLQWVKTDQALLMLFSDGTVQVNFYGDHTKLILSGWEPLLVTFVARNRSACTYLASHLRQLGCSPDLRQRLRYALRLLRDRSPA", "assay": "KINOMEscan", "type": "binding", "details": "1.0 µM", "description": "as §1"}, "TIE2": {"target": "T22, TIE2 (Homo sapiens, UniProt Q02763)", "T22 construct": "purchased Eurofins/DiscoverX KINOMEscan scanMAX", "assay": "KINOMEscan", "type": "binding", "details": "1.0 µM", "description": "as §1"}, "TRPM6": {"target": "T23, TRPM6 (Homo sapiens, UniProt Q9BX84)", "T23 construct": "DNA tag (qPCR barcode); purchased Eurofins/DiscoverX KINOMEscan scanMAX", "assay": "KINOMEscan", "type": "binding", "details": "1.0 µM", "description": "as §1"}, "TSSK3": {"target": "T24, TSSK3 (Homo sapiens, UniProt Q96PN8)", "T24 construct": "DNA tag (qPCR barcode); purchased Eurofins/DiscoverX KINOMEscan scanMAX", "assay": "KINOMEscan", "type": "binding", "details": "1.0 µM", "description": "as §1"}, "TXK": {"target": "T25, TXK (Homo sapiens, UniProt P42681)", "T25 construct": "DNA tag (qPCR barcode); purchased Eurofins/DiscoverX KINOMEscan scanMAX", "assay": "KINOMEscan", "type": "binding", "details": "1.0 µM", "description": "as §1"}, "[1]": {"target": "T26, TYK2(JH1domain-catalytic) (Homo sapiens, UniProt P29597)", "T26 construct": "TYK2(JH1domain-catalytic); DNA tag (qPCR barcode); purchased Eurofins/DiscoverX KINOMEscan scanMAX", "T26 sequence (P29597 897-1176 limits assumed)": "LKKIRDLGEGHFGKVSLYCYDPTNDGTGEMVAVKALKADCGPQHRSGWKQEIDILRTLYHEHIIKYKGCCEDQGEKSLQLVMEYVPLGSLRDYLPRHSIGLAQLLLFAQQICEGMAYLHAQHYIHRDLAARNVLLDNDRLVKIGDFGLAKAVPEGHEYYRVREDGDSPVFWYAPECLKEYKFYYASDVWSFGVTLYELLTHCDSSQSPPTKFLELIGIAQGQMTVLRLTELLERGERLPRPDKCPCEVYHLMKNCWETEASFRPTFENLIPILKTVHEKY", "assay": "KINOMEscan", "type": "binding", "details": "1.0 µM", "description": "as §1"}, "ULK2": {"target": "T27, ULK2 (Homo sapiens, UniProt Q8IYT8)", "T27 construct": "DNA tag (qPCR barcode); purchased Eurofins/DiscoverX KINOMEscan scanMAX", "T27 sequence (Q8IYT8 whole entry)": "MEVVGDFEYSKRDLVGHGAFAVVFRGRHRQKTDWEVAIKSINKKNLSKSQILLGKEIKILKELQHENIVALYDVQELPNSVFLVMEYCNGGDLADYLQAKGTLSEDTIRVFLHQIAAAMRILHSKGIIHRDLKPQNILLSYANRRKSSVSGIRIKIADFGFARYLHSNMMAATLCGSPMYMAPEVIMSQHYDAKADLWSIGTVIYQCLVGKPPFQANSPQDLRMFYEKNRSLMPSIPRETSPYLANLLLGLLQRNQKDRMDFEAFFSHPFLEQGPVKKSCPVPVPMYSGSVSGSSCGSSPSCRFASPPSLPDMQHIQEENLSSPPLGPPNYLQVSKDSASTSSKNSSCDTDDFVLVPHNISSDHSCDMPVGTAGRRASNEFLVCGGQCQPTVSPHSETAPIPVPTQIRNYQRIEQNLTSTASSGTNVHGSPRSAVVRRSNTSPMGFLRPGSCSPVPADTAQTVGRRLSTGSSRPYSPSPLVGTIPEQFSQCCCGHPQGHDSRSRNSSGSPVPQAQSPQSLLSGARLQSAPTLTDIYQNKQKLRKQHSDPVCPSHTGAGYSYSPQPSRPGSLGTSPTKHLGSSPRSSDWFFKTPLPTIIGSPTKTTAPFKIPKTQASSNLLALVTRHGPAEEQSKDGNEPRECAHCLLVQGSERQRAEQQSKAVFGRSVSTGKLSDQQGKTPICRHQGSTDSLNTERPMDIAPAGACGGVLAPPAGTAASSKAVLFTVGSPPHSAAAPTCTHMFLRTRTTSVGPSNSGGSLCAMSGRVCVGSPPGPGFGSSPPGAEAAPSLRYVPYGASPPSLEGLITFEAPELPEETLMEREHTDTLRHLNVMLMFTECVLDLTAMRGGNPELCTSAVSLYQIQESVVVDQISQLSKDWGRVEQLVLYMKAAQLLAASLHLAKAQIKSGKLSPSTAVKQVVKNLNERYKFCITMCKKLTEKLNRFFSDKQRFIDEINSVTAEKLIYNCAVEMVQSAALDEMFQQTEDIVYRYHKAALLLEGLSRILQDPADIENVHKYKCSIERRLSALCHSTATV", "assay": "KINOMEscan", "type": "binding", "details": "1.0 µM", "description": "as §1"}, "PRP4": {"target": "T28, PRP4 (Homo sapiens, UniProt Q13523)", "T28 construct": "purchased Eurofins/DiscoverX KINOMEscan scanMAX", "assay": "KINOMEscan", "type": "binding", "details": "1.0 µM"}, "VEGFR2": {"target": "T29, VEGFR2 (Homo sapiens, UniProt P35968)", "T29 construct": "DNA tag (qPCR barcode); purchased Eurofins/DiscoverX KINOMEscan scanMAX", "assay": "KINOMEscan", "type": "binding", "details": "1.0 µM"}}}
{"smiles": "CN1CCN(C2CCC(n3cc(-c4ccc(Oc5ccccc5)cc4)c4c(N)ncnc43)CC2)CC1", "note": "(stereo not shown) [A-419259]", "values": [{"measurement": "reduction of kinase sensitivity to A-419259", "setting": "Hck T338M; Hck gatekeeper threonine to methionine, vs wild-type", "result": 2, "unit": "fold"}, {"measurement": "IC50", "setting": "Hck T338M; read-out: A-419259 IC50, Fig 5B, Hck T338M, ATP at Km, mean ± SE, three independent determinations", "result": "94.9 ± 1.1", "unit": "nM"}, {"measurement": "resistance to A-419259", "setting": "Fgr T338F; Fgr gatekeeper phenylalanine substitution, vs wild-type", "result": "~5", "unit": "fold"}, {"measurement": "IC50", "setting": "Fgr T338F; read-out: A-419259 IC50, Fig 5B, Fgr T338F, ATP at Km, mean ± SE, three independent determinations", "result": "282.9 ± 1.1", "unit": "nM"}, {"measurement": "% Control", "setting": "ACVR2A", "result": 100, "unit": "%"}, {"measurement": "% Control", "setting": "AKT3", "result": 100, "unit": "%"}, {"measurement": "% Control", "setting": "BRSK1", "result": 14, "unit": "%"}, {"measurement": "% Control", "setting": "CAMK1G", "result": 100, "unit": "%"}, {"measurement": "% Control", "setting": "CLK1", "result": 100, "unit": "%"}, {"measurement": "% Control", "setting": "EPHA1", "result": 58, "unit": "%"}, {"measurement": "% Control", "setting": "FLT3-autoinhibited", "result": 3.4, "unit": "%"}, {"measurement": "% Control", "setting": "FYN", "result": 5.1, "unit": "%"}, {"measurement": "% Control", "setting": "GRK4", "result": 100, "unit": "%"}, {"measurement": "% Control", "setting": "HIPK3", "result": 91, "unit": "%"}, {"measurement": "% Control", "setting": "MLK3", "result": 100, "unit": "%"}, {"measurement": "% Control", "setting": "MRCKB", "result": 100, "unit": "%"}, {"measurement": "% Control", "setting": "NEK1", "result": 100, "unit": "%"}, {"measurement": "% Control", "setting": "PAK1", "result": 55, "unit": "%"}, {"measurement": "% Control", "setting": "PFCDPK1(P.falciparum)", "result": 0, "unit": "%"}, {"measurement": "% Control", "setting": "PHKG1", "result": 99, "unit": "%"}, {"measurement": "% Control", "setting": "PIK3C2B", "result": 10, "unit": "%"}, {"measurement": "% Control", "setting": "PLK1", "result": 100, "unit": "%"}, {"measurement": "% Control", "setting": "PLK3", "result": 72, "unit": "%"}, {"measurement": "% Control", "setting": "TIE2", "result": 15, "unit": "%"}, {"measurement": "% Control", "setting": "TRPM6", "result": 100, "unit": "%"}, {"measurement": "% Control", "setting": "TSSK3", "result": 95, "unit": "%"}, {"measurement": "% Control", "setting": "TXK", "result": 13, "unit": "%"}, {"measurement": "% Control", "setting": "[1]", "result": 100, "unit": "%"}, {"measurement": "% Control", "setting": "ULK2", "result": 47, "unit": "%"}, {"measurement": "% Control", "setting": "PRP4", "result": 98, "unit": "%"}, {"measurement": "% Control", "setting": "VEGFR2", "result": 24, "unit": "%"}]}
